The results in this text go back to patent US20240294499A1, “TARGETED PROTEIN DEGRADATION USING BIFUNCTIONAL COMPOUNDS THAT BIND UBIQUITIN LIGASE AND TARGET MCL-1 PROTEIN” (Captor Therapeutics S.A., priority 2021, published 2024).

Experiment [1] relates to MV-4-11 cells. In words: Cell viability assay (CellTiter-Glo), MV-4-11. The class given is cell-based. The conditions noted are these: Homo sapiens, MV4-11, 24 hours incubation, 1% FBS, read-out: Average pIC50 by molecule MV-4-11 (converted). Put shortly:
(§1)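 OPM-2, MV-4-11 and ARH-77 cells were grown in medium with 1% FBS and treated with compound in 1/3 dilutions from 30 uM (9–12 points, 0.5% DMSO). Viability was read by CellTiter-Glo luminescence after 24 hours and normalized to DMSO control.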

Experiment [2] concerns the target T1, [MCL-1]-[compound of formula (I)]-[CRBN/DDB1] complex (Homo sapiens, UniProt Q07820+Q96SW2). In words: AlphaLISA dose response ternary complex formation assay. The class given is binding. The conditions noted are these: read-out: AlphaLISA dose response Average pEC50 by molecule (converted). Summed up:
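EC50 comes from dose–response of AlphaLISA luminescence (excitation 680, emission 615 nm), normalised between DMSO background and an internal positive control, with concentrations past the hook point dropped. Ternary complex formed by mixing bead-bound biotin-hMCL-1 and His-CRBN/DDB1 (protein solutions 40 and 200 nM) with compound in 2% DMSO, 30 min, 25 °C.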

Experiment [3] addresses MCL-1 protein (Homo sapiens, UniProt Q07820). In words: OPM-2 cells: MCL-1 protein degradation, Simple Western. The class given is cell-based. Particulars: OPM-2 cell line, 6 h treatment, 100 nM compound, vs DMSO. The arrangement: endogenous in cells; host or cells: OPM-2. An excerpt:
The effect of various compounds of the invention and the reference compounds on MCL-1protein degradation in the OPM-2 cell line was investigated, using the degradation assay protocol below.
OPM-2 cells were maintained in RPMI-1640 medium, supplemented with penicillin/streptomycin and 10% Fetal Bovine Serum (FBS). During the treatment, FBS concentration was reduced to 1%.
Compound stocks were pre-diluted in DMSO and added directly to the cells growth medium (final DMSO concentration: 0.5%).
OPM-2 cells were collected, centrifuged (250 rcf, 5 min), resuspended in a growth medium containing 1% FBS and counted. The cell suspension was then adjusted to 1×10^6 cell/ml using a growth medium containing 1% FBS. Afterwards, 0.5×10^6 cells were seeded on 24-well plates in 0.5 mL of medium per well. Immediately after seeding cells, compounds in appropriate concentrations were added to the cell culture medium.
Following the treatment with the compounds, cells were collected from the plates and suspended in a lysis buffer (2% SDS, 50 mM Tris, pH 8.0, 100 U/ml Pierce Universal Nuclease for Cell Lysis, cOmplete EDTA-free Protease Inhibitor Cocktail) and incubated on ice for 45 min.
The following steps, including sample loading, protein separation, immunoprobing or labelling, washes and detection analysis was performed using Jess from ProteinSimple, an automatic system for analyzing protein levels in cell lysates (12-230 kDa Jess or Wes separation module 8×25 capillaries, protein normalization assay, no. SM-PN01-1). The Protein of Interest was detected using MCL-1 (D35A5) Rabbit monoclonal antibody (Cell Signaling, #5453, LOT: 4). Antibody was diluted in a ratio of 1:100 in Antibody diluent.
[%] of protein reduction is calculated in comparison to the cells treated with DMSO, which stand for 0%.
The results for the 6 h treatment with 100 nM compounds are shown in Table 9, using the following labels: • <20% for 0-19% of MCL-1 protein reduction, • ≥20% for 20-39% of MCL-1 protein reduction, • ≥40% for 40-100% of MCL-1 protein reduction.

The target of experiment [4] is T1, [MCL-1]-[compound of formula (I)]-[CRBN/DDB1] complex. The experiment in a line: HTRF ternary complex assay. The class given is binding. Particulars: ternary complex formation; read-out: HTRF ternary complex Average pEC50 by molecule (converted). Summed up: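 hMcl-1 and CRBN (mix at 48 nM and 105.6 nM) with Streptavidin-Eu cryptate and anti-6×His-d2 in PPI Europium buffer with 2 mM DTT; compounds in dose-response, 0.5% DMSO. Incubated 180 min at 25° C, TR-FRET 665/620 read. Bell-shaped curve fitted by Gaussian; EC50 reported.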

Experiment [5] relates to ARH-77 cells. The experiment in a line: Cell viability assay (CellTiter-Glo), ARH-77. The class given is cell-based. Particulars: Homo sapiens, ARH-77, 24 hours incubation, 1% FBS, read-out: Average pIC50 by molecule ARH-77 (converted). Put shortly:
as §1

Where only a bound is given, the exact number is not on record here.

Sequence of MCL-1 protein (Q07820 whole entry): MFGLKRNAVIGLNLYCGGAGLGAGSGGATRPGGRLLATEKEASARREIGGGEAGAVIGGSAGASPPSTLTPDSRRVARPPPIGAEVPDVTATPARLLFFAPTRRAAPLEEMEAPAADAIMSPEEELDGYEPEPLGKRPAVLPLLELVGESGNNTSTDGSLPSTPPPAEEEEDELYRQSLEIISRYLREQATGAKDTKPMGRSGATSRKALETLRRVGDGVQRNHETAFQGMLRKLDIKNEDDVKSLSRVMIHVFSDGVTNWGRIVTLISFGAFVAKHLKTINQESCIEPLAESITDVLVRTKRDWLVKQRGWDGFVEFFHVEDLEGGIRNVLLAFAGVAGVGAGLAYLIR
T1 sequence (Q07820 whole entry): as above
T1 sequence (Q96SW2 whole entry): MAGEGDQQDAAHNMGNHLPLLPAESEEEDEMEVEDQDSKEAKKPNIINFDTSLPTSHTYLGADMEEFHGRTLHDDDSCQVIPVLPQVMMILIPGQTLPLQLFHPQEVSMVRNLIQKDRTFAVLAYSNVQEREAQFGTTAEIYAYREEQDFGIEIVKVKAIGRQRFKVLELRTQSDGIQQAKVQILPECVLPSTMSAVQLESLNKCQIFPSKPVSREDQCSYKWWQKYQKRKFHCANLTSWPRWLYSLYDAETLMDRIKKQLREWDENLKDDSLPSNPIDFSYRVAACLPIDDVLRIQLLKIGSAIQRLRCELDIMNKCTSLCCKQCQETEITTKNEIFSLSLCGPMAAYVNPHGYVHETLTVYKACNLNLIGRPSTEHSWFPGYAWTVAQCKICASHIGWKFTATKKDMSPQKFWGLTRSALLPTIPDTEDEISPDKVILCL
T1 sequence (Q16531 whole entry partner): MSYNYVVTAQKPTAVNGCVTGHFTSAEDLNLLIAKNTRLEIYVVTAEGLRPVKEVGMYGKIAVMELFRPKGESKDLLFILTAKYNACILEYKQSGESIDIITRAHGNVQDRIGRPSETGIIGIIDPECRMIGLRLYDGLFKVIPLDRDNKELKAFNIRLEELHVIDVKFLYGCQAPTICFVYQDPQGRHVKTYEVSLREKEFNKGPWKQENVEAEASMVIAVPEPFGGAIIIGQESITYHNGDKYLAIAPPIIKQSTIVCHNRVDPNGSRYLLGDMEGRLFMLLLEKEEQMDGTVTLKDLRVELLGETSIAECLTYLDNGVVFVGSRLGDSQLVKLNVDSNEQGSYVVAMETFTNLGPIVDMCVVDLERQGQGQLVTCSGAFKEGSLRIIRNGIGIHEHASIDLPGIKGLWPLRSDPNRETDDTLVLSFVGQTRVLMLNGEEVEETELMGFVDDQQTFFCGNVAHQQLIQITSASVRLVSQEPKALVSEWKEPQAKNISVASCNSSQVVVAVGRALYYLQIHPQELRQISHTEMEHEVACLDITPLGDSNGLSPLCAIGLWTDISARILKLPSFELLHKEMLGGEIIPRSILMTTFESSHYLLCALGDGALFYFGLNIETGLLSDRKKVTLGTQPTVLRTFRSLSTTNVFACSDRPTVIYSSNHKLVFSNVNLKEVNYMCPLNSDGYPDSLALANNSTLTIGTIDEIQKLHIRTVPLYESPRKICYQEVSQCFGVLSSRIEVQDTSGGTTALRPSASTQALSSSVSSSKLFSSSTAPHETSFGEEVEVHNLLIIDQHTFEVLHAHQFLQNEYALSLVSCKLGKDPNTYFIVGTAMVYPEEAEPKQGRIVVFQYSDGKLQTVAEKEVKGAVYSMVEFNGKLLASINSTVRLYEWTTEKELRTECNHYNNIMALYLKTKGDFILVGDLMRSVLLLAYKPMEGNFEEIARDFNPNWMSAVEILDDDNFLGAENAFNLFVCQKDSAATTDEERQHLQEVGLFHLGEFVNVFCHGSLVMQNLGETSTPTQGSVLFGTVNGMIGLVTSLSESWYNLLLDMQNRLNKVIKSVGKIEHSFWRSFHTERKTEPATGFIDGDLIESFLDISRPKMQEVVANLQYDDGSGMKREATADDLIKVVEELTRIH

Take `Cc1ccc2c(CCCOc3cccc4ccccc34)c(C(=O)O)n(CCN3CCN(C(=O)COc4cccc5c4C(=O)N(C4CCC(=O)NC4=O)C5=O)CC3)c2c1-c1c(C)nn(C)c1C` (stereo not shown) [Compound 217, 1-(2-(4-(2-((2-(2,6-dioxopiperidin-3-yl)-1,3-dioxoisoindolin-4-yl)oxy)acetyl)piperazin-1-yl)ethyl)-6-methyl-3-(3-(naphthalen-1-yloxy)propyl)-7-(1,3,5-trimethyl-1H-pyrazol-4-yl)-1H-indole-2-carboxylic acid]: the IC50 in experiment [1] was not above 1 µM. Moreover, the EC50 in experiment [2] is less than 0.1 µM. Further, the “Simple Western, % of protein reduction” value in experiment [3] is reported as not below 40%.
Consider `Cc1nn(C)c(COc2ccc(N3CCN(S(=O)(=O)N(C)C)CC3)cc2)c1-c1cccc2c(CCCOc3cccc4ccccc34)c(C(=O)O)n(CCN3CCN(C(=O)CNc4cccc5c4C(=O)N(C4CCC(=O)NC4=O)C5=O)CC3)c12` (stereo not shown) [Compound 245, 7-(5-((4-(4-(N,N-dimethylsulfamoyl)piperazin-1-yl)phenoxy)methyl)-1,3-dimethyl-1H-pyrazol-4-yl)-1-(2-(4-((2-(2,6-dioxopiperidin-3-yl)-1,3-dioxoisoindolin-4-yl)glycyl)piperazin-1-yl)ethyl)-3-(3-(naphthalen-1-yloxy)propyl)-1H-indole-2-carboxylic acid], for which the EC50 in experiment [2] is less than 1 µM. The “Simple Western, % of protein reduction” value in experiment [3] is not below 20%.
On to `Cc1c(-c2c(-c3ccc(F)o3)sc3ncnc(O[C@H](Cc4ccccc4OCc4ccnn4CC(F)(F)F)C(=O)NS(=O)(=O)CCNC(=O)CCOCCOCCNc4cccc5c4C(=O)N(C4CCC(=O)NC4=O)C5=O)c23)ccc(OCCN2CCN(C)CC2)c1Cl` (stereo partly drawn) [Compound 260, (2R)-2-[(5-{3-chloro-2-methyl-4-[2-(4-methylpiperazin-1-yl)ethoxy]phenyl}-6-(5-fluorofuran-2-yl)thieno[2,3-d]pyrimidin-4-yl)oxy]-N-(2-{3-[2-(2-{[2-(2,6-dioxopiperidin-3-yl)-1,3-dioxo-2,3-dihydro-1H-isoindol-4-yl]amino}ethoxy)ethoxy]propanamido}ethanesulfonyl)-3-(2-{[1-(2,2,2-trifluoroethyl)-1H-pyrazol-5-yl]methoxy}phenyl)propanamide], for which the “Simple Western, % of protein reduction” value in experiment [3] is given as not below 20%.
Turning to `Cc1nc2c(C(=O)NC3CCC(=O)NC3=O)c(OCC(=O)N3CCN(CCn4c(C(=O)O)c(CCCOc5cccc6ccccc56)c5ccc(Cl)c(-c6c(C)nn(C)c6C)c54)CC3)ccc2[nH]1` (stereo not shown) [Compound 264, 6-chloro-1-(2-(4-(2-((4-((2,6-dioxopiperidin-3-yl)carbamoyl)-2-methyl-1H-benzo[d]imidazol-5-yl)oxy)acetyl)piperazin-1-yl)ethyl)-3-(3-(naphthalen-1-yloxy)propyl)-7-(1,3,5-trimethyl-1H-pyrazol-4-yl)-1H-indole-2-carboxylic acid], the “Simple Western, % of protein reduction” value in experiment [3] is not below 20%.
With `Cc1nn(C)c(C)c1-c1c(Cl)ccc2c(CCCOc3cccc4cc(F)ccc34)c(C(=O)O)n(CCN3CCN(CCOc4cccc5c4C(=O)N(C4CCC(=O)NC4=O)C5=O)CC3)c12` (stereo not shown) [Compound 321, 6-Chloro-1-(2-(4-(2-((2-(2,6-dioxopiperidin-3-yl)-1,3-dioxoisoindolin-4-yl)oxy)ethyl)piperazin-1-yl)ethyl)-3-(3-((6-fluoronaphthalen-1-yl)oxy)propyl)-7-(1,3,5-trimethyl-1H-pyrazol-4-yl)-1H-indole-2-carboxylic acid], the EC50 in experiment [4] was less than 0.1 µM; in experiment [2], less than 0.01 µM. Moreover, the IC50 in experiment [1] was not above 0.316 µM; in experiment [5], more than 10 µM.
The like results for `Cc1nn(C)c(C)c1-c1c(Cl)ccc2c(CCCOc3cccc4cc(F)ccc34)c(C(=O)O)n(CCCCN(C)C(=O)COc3cccc4c3CN(C3CCC(=O)NC3=O)C4=O)c12` (stereo not shown) [Compound 326, 6-chloro-1-[4-(2-{[2-(2,6-dioxopiperidin-3-yl)-1-oxo-2,3-dihydro-1H-isoindol-4-yl]oxy}-N-methylacetamido)butyl]-3-{3-[(6-fluoronaphthalen-1-yl)oxy]propyl}-7-(1,3,5-trimethyl-1H-pyrazol-4-yl)-1H-indole-2-carboxylic acid] were, in that order, less than 0.01 µM, less than 0.1 µM, not above 0.316 µM and more than 10 µM.
For the compound `Cc1nn(C)c(C)c1-c1c(Cl)ccc2c(CCCOc3cccc4cc(F)ccc34)c(C(=O)O)n(CCN(C)CCN(C)C(=O)COc3cccc4c3CN(C3CCC(=O)NC3=O)C4=O)c12` (stereo not shown) [Compound 327, 6-Chloro-1-(2-((2-(2-((2-(2,6-dioxopiperidin-3-yl)-1-oxoisoindolin-4-yl)oxy)-N-methylacetamido)ethyl)(methyl)amino)ethyl)-3-(3-((6-fluoronaphthalen-1-yl)oxy)propyl)-7-(1,3,5-trimethyl-1H-pyrazol-4-yl)-1H-indole-2-carboxylic acid], the EC50 is less than 0.01 µM in experiment [4] and less than 0.1 µM in experiment [2]. Further, the figures for the IC50 in experiment [1] and in experiment [5] were not above 0.1 µM and more than 10 µM, respectively.
Regarding `Cc1nn(C)c(C)c1-c1c(Cl)ccc2c(CCCOc3cccc4cc(F)ccc34)c(C(=O)O)n(CCCCCN(C)C(=O)COc3cccc4c3CN(C3CCC(=O)NC3=O)C4=O)c12` (stereo not shown) [Compound 328, 6-Chloro-1-(5-(2-((2-(2,6-dioxopiperidin-3-yl)-1-oxoisoindolin-4-yl)oxy)-N-methylacetamido)pentyl)-3-(3-((6-fluoronaphthalen-1-yl)oxy)propyl)-7-(1,3,5-trimethyl-1H-pyrazol-4-yl)-1H-indole-2-carboxylic acid], the EC50 in experiment [4] and in experiment [2] was less than 0.1 µM each time. Also, the IC50 in experiment [1] was not above 0.0316 µM; in experiment [5] it was more than 3.16 µM.
With `Cc1nn(C)c(C)c1-c1c(Cl)ccc2c(CCCOc3cccc4cc(F)ccc34)c(C(=O)O)n(CCCNC(=O)COc3cccc4c3CN(C3CCC(=O)NC3=O)C4=O)c12` (stereo not shown) [Compound 330, 6-Chloro-1-[3-(2-{[2-(2,6-dioxopiperidin-3-yl)-1-oxo-2,3-dihydro-1H-isoindol-4-yl]oxy}acetamido)propyl]-3-{3-[(6-fluoronaphthalen-1-yl)oxy]propyl}-7-(1,3,5-trimethyl-1H-pyrazol-4-yl)-1H-indole-2-carboxylic acid], the EC50 in experiment [4] and in experiment [2] was less than 0.1 µM throughout. Also, the results for the IC50 in experiment [1] and in experiment [5] were not above 0.1 µM and more than 10 µM, respectively.
For `Cc1nn(C)c(C)c1-c1c(Cl)ccc2c(CCCOc3cccc4ccc(F)cc34)c(C(=O)O)n(CCN3CCN(C(=O)COc4cccc5c4CN(C4CCC(=O)NC4=O)C5=O)CC3)c12` (stereo not shown) [Compound 354, 6-Chloro-1-(2-(4-(2-((2-(2,6-dioxopiperidin-3-yl)-1-oxoisoindolin-4-yl)oxy)acetyl)piperazin-1-yl)ethyl)-3-(3-((7-fluoronaphthalen-1-yl)oxy)propyl)-7-(1,3,5-trimethyl-1H-pyrazol-4-yl)-1H-indole-2-carboxylic acid], the EC50 in experiment [4] and in experiment [2] was less than 0.1 µM each time. The IC50 is not above 0.1 µM in experiment [1] and more than 10 µM in experiment [5].
